This note sets out measurements from patent US9822131B2, “Certain chemical entities, compositions and methods” (Intellikine LLC, priority 2008, dated 2017).

The test system of one assay is Balb/c splenic B cells. Description: B cell activation and proliferation assay (Alamar Blue). Type of assay: cell-based. The note with it: Mus musculus, read-out: B cell proliferation EC50. Background: Resazurin is reduced to fluorescent resorufin, in cell work by metabolically active cells.
Another assay has as its target T1, PI3K γ (Homo sapiens, UniProt P48736).
T1 construct: purchased Sigma
Kind of assay: PI3K γ in vitro kinase inhibition assay. Type of assay: biochemical.

The target in the next assay is T2, PI3K α (Homo sapiens, UniProt P42336).
T2 construct: purchased Upstate
T2 sequence (P42336 whole entry): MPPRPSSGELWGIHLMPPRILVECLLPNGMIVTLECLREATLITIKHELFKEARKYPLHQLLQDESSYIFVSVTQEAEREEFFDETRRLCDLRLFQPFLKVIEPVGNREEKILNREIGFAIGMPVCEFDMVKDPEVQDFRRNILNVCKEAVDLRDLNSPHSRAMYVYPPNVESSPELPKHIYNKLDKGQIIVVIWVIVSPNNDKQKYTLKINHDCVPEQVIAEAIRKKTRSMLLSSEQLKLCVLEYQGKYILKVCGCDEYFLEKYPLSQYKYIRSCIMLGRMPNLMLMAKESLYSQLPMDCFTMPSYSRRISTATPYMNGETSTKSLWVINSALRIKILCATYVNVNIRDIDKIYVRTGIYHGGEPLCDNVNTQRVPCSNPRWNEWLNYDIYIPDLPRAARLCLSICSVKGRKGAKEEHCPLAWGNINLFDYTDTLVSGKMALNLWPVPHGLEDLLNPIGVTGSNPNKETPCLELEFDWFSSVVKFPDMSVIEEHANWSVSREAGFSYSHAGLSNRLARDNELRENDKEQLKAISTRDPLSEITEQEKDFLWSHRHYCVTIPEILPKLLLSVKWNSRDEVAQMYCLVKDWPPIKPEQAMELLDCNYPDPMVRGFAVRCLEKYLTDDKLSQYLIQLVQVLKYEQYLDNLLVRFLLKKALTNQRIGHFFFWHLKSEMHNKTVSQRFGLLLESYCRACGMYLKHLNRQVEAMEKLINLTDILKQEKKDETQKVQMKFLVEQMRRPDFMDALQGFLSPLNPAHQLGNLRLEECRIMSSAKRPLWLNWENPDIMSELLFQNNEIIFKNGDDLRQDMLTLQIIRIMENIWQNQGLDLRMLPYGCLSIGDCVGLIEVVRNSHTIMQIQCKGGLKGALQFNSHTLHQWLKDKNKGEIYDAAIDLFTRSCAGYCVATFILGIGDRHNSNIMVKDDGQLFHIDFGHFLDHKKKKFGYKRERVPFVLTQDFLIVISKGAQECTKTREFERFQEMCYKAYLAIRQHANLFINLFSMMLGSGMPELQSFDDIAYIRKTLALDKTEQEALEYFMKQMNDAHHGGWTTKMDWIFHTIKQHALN
T2 sequence (P27986 whole entry partner): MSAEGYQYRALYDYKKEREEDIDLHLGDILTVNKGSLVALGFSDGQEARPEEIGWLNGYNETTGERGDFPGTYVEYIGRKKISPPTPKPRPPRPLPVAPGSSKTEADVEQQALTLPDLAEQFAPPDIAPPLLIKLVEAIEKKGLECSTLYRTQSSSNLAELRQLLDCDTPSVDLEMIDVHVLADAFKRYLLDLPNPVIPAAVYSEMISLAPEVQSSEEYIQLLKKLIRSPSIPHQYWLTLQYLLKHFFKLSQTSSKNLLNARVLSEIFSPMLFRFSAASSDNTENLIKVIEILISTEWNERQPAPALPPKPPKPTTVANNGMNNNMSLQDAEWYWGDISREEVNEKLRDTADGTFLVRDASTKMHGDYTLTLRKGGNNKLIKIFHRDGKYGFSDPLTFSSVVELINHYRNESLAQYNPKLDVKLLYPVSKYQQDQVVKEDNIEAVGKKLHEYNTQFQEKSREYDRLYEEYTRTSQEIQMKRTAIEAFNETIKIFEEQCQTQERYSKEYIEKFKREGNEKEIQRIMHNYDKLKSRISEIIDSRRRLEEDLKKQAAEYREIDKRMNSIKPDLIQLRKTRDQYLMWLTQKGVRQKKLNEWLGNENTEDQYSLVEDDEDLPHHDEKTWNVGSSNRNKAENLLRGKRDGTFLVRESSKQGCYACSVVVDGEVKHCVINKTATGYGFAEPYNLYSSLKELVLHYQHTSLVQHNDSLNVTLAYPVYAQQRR
Kind of assay: PI3K α in vitro kinase inhibition assay. Type of assay: biochemical.

The target in another assay is T3, PI3K β (Homo sapiens, UniProt P42338).
T3 construct: purchased Upstate
T3 sequence (P42338 whole entry): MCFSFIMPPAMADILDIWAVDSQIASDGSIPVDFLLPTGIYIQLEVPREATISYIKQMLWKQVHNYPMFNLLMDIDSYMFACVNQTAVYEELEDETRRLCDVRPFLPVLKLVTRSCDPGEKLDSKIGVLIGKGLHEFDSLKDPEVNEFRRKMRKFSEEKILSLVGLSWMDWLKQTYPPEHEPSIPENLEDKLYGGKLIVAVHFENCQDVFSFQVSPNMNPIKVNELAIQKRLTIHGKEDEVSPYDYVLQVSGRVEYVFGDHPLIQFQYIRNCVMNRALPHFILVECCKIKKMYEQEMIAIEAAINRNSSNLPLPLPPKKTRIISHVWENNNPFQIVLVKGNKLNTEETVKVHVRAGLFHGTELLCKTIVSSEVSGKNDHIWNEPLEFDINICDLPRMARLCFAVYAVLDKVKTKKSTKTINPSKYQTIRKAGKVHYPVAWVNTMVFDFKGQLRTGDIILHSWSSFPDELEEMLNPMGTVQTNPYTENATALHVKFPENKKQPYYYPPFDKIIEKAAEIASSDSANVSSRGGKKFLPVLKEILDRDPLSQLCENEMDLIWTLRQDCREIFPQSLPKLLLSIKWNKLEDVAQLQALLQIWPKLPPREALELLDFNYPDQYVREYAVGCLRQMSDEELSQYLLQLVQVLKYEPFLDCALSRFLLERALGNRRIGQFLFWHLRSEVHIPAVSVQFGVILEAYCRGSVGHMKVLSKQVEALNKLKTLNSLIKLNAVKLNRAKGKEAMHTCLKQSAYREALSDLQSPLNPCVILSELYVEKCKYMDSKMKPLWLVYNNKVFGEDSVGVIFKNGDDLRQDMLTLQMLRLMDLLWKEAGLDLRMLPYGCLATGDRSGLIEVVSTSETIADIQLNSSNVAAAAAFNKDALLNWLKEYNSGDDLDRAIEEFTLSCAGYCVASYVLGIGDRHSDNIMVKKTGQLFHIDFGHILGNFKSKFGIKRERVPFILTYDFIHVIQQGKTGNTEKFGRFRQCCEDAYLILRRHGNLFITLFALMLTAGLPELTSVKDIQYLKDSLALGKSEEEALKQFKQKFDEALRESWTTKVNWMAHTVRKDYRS
T3 sequence (P27986 whole entry partner): as the sequence (P27986 whole entry partner) above
Description: PI3K β in vitro kinase inhibition assay. The format is biochemical.

For the next assay, the target named is T4, PI3K δ (Homo sapiens, UniProt O00329).
T4 construct: purchased Upstate
T4 sequence (O00329 whole entry): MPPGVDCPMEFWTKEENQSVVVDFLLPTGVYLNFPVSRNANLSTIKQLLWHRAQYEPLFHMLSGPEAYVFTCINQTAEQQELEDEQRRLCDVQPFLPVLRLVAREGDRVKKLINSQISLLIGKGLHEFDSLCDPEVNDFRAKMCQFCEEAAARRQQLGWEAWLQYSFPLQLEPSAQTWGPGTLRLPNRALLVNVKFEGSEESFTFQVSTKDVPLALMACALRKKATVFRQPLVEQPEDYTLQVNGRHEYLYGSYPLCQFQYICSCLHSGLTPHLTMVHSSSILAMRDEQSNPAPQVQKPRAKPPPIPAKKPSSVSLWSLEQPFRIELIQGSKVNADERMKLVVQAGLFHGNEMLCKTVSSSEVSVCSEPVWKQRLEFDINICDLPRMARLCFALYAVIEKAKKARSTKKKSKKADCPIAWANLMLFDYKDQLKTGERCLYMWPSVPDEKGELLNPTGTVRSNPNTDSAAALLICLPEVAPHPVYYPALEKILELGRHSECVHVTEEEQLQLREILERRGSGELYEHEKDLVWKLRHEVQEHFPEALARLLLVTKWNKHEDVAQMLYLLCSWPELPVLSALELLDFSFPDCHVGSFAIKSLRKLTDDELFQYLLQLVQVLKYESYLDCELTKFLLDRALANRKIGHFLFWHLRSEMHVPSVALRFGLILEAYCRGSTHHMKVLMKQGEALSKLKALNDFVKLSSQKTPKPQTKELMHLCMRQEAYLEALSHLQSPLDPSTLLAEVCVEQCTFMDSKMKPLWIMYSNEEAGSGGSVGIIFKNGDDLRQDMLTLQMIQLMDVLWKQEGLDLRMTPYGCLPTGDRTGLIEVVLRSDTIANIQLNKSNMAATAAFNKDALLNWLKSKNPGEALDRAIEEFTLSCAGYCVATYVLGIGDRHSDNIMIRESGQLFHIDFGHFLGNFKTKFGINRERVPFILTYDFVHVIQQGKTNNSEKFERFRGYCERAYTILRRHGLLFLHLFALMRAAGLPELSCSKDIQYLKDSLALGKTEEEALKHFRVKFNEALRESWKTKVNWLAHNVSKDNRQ
T4 sequence (P27986 whole entry partner): as the sequence (P27986 whole entry partner) above
Description: PI3K δ in vitro kinase inhibition assay. Type of assay: biochemical.

T1 sequence (P48736 whole entry): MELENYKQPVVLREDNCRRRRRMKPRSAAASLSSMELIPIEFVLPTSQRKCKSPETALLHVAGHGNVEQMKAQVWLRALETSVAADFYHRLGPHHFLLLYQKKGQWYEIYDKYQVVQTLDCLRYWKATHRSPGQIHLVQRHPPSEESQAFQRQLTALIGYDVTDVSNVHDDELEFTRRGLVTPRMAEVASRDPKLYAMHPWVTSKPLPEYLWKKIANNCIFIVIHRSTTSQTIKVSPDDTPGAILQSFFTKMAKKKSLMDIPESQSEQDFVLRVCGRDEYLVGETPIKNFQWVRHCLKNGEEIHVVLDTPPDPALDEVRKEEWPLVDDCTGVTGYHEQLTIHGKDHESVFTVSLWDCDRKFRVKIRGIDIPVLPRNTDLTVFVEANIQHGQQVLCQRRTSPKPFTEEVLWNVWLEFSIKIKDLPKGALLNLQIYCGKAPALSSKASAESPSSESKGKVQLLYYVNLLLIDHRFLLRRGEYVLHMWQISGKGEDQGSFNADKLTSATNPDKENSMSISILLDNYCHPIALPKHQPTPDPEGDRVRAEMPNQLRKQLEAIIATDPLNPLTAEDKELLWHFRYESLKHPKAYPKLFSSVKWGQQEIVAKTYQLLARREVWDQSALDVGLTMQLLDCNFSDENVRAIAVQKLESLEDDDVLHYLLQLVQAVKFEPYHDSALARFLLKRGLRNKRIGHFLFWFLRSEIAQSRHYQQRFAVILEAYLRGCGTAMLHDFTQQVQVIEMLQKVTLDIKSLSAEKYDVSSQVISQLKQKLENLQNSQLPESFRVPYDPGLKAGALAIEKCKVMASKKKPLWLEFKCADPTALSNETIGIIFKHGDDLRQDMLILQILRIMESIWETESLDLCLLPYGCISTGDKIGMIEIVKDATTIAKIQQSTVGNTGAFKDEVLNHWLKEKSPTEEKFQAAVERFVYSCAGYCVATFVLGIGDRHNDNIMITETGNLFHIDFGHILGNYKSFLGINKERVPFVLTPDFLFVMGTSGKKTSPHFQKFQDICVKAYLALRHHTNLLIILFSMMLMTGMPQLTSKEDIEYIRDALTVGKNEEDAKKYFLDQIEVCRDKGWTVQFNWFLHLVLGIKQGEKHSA
Description for Balb/c splenic B cells: The assay is performed in a 96 well microtiter plate using Alamar Blue reduction. Balb/c splenic B cells are purified over a Ficoll-Paque™ PLUS gradient followed by magnetic cell separation using a MACS B cell Isolation Kit (Miletenyi). Cells are plated in 90 ul at 50,000 cells/well in B Cell Media (RPMI+10% FBS+Penn/Strep+50 uM bME+5 mM HEPES). A compound disclosed herein is diluted in B Cell Media and added in a 10 ul volume. Plates are incubated for 30 min at 37 C and 5% CO2 (0.2% DMSO final concentration). A 50 ul B cell stimulation cocktail is then added containing either 10 ug/ml LPS or 5 ug/ml F(ab′)2 Donkey anti-mouse IgM plus 2 ng/ml recombinant mouse IL4 in B Cell Media. […] A volume of 15 uL of Alamar Blue reagent is added to each well and plates are incubated for 5 hours at 37 C and 5% CO2. Alamar Blue fluoresce is read at 560Ex/590Em, and IC50 or EC50 values are calculated using GraphPad Prism 5.
Description for PI3K α: (§1) IC50 values are measured using either a standard TLC assay for lipid kinase activity (described below) or a high-throughput membrane capture assay. Kinase reactions are performed by preparing a reaction mixture containing kinase, inhibitor (2% DMSO final concentration), buffer (25 mM HEPES, pH 7.4, 10 mM MgCl2), and freshly sonicated phosphatidylinositol (100 μg/ml). Reactions are initiated by the addition of ATP containing 10 μCi of γ-32P-ATP to a final concentration 10 or 100 μM and allowed to proceed for 5 minutes at room temperature. For TLC analysis, reactions are then terminated by the addition of 105 μl 1N HCl followed by 160 μl CHCl3:MeOH (1:1). The biphasic mixture is vortexed, briefly centrifuged, and the organic phase is transferred to a new tube using a gel loading pipette tip precoated with CHCl3. This extract is spotted on TLC plates and developed for 3-4 hours in a 65:35 solution of n-propanol:1M acetic acid. The TLC plates are then dried, exposed to a phosphorimager screen (Storm, Amersham), and quantitated.
(§2) Briefly, the assay is a time resolved FRET assay that indirectly measures PIP3 product formed by the activity of a PI3-K. The kinase reaction is performed in a microtiter plate (e.g., a 384 well microtiter plate). The total reaction volume is approximately 20 ul per well. In the first step, each well receives 2 ul of test compound in 20% dimethylsulphoxide resulting in a 2% DMSO final concentration. Next, approximately 14.5 ul of a kinase/PIP2 mixture (diluted in 1× reaction buffer) is added per well for a final concentration of 0.25-0.3 ug/ml kinase and 10 uM PIP2. […] To start the reaction, 3.5 ul of ATP (diluted in 1× reaction buffer) is added per well for a final concentration of 10 uM ATP. The plate is sealed and incubated for 1 hour at room temperature. The reaction is stopped by adding 5 ul of Stop Solution per well and then 5 μl of Detection Mix is added per well. The plate is sealed, incubated for 1 hour at room temperature, and then read on an appropriate plate reader. Data is analyzed and IC50s are generated using GraphPad Prism 5.
Description for PI3K β: as §1, §2
Description for PI3K γ: as §1, §2
Description for PI3K δ: as §1, §2

With `COc1ccccc1-n1c(Cn2nc(-c3cccc(O)c3)c3c(N)ncnc32)nc2scc(C)c2c1=O` [Compound 275], in the assay on Balb/c splenic B cells, the EC50 is below 100 nM. The IC50 is below 1000 nM on PI3K γ, above 10000 nM against PI3K α, below 10000 nM on PI3K β and below 100 nM at PI3K δ.

With `Cc1csc2nc(Cn3nc(Cl)c4c(N)ncnc43)n(-c3ccccc3C(F)(F)F)c(=O)c12` [Compound 280], the EC50 in the assay with Balb/c splenic B cells is below 100 nM. Also, the IC50 was below 1000 nM against PI3K γ, above 10000 nM against PI3K α, above 10000 nM at PI3K β and below 100 nM on PI3K δ.

`Cc1csc2nc(Cn3nc(-c4cccc(O)c4)c4c(N)ncnc43)n(-c3ccccc3C(F)(F)F)c(=O)c12` [Compound 281]: the EC50 in the assay with Balb/c splenic B cells was below 100 nM. Moreover, the 50% inhibitory concentration (IC50) at PI3K γ was below 100 nM; against PI3K α, above 10000 nM; at PI3K β, below 10000 nM; against PI3K δ it was below 100 nM.

With `Cc1csc2nc(Cn3nc(C#C[C@@H](C)O)c4c(N)ncnc43)n(-c3ncccc3C(F)(F)F)c(=O)c12` [Compound 282], the EC50 in the assay on Balb/c splenic B cells was below 100 nM. For the same compound, the IC50 is below 10000 nM against PI3K γ, above 10000 nM against PI3K α, below 10000 nM against PI3K β and below 100 nM against PI3K δ.

`CCc1ccccc1-n1c(Cn2nc(Br)c3c(N)ncnc32)nc2scc(C)c2c1=O` [Compound 283]: the EC50 in the assay with Balb/c splenic B cells was below 100 nM. For the same compound, the concentration for half-maximal inhibition (IC50) was below 100 nM against PI3K γ, above 10000 nM on PI3K α, below 10000 nM at PI3K β and below 100 nM on PI3K δ.

Turning to `Cc1csc2nc(Cn3nc(I)c4c(N)ncnc43)n(-c3ccccc3C(C)C)c(=O)c12` [Compound 284], the EC50 with Balb/c splenic B cells was below 100 nM. Besides, the IC50 against PI3K γ is below 100 nM; on PI3K α, above 10000 nM; against PI3K β, below 10000 nM; against PI3K δ, below 100 nM.

As to `Cc1csc2nc(Cn3nc(Br)c4c(N)ncnc43)n(-c3ccccc3Cl)c(=O)c12` [Compound 286], the EC50 in the assay with Balb/c splenic B cells was below 100 nM. Further, the IC50 at PI3K γ is below 1000 nM; on PI3K α, above 10000 nM; against PI3K β it was below 10000 nM; at PI3K δ it was below 100 nM.

In the case of `CCc1ccccc1-n1c(Cn2nc(-c3cccc(O)c3)c3c(N)ncnc32)nc2scc(C)c2c1=O` [Compound 290], the EC50 with Balb/c splenic B cells is below 100 nM. In addition, the IC50 is below 100 nM against PI3K γ, above 10000 nM against PI3K α, below 10000 nM at PI3K β and below 100 nM against PI3K δ.

Turning to `CCc1ccccc1-n1c(Cn2nc(-c3cc(O)cc(F)c3)c3c(N)ncnc32)nc2scc(C)c2c1=O` [Compound 292], the EC50 in the assay on Balb/c splenic B cells is below 100 nM. The IC50 at PI3K γ is below 100 nM; at PI3K α, above 10000 nM; against PI3K β, below 1000 nM; against PI3K δ, below 100 nM.

As for `Cc1csc2nc(Cn3nc(-c4cc(O)cc(F)c4)c4c(N)ncnc43)n(-c3ccccc3Cl)c(=O)c12` [Compound 296], the EC50 with Balb/c splenic B cells is below 100 nM. Also, the 50% inhibitory concentration (IC50) at PI3K γ was above 10000 nM; against PI3K α, below 10000 nM; against PI3K β, below 1000 nM; on PI3K δ, below 100 nM.

With `Cc1cccnc1-n1c(Cn2nc(-c3cc(O)cc(F)c3)c3c(N)ncnc32)nc2scc(C)c2c1=O` [Compound 297], the EC50 with Balb/c splenic B cells is below 100 nM. Also, the IC50 at PI3K γ is above 10000 nM; on PI3K α it was above 10000 nM; against PI3K β it was below 10000 nM; against PI3K δ it was below 100 nM.

Usually IC50 stands for the point on the concentration scale where inhibition reaches its midpoint.
